Laboratory results from US20240247024A1, “INHIBITORS OF NICOTINAMIDE N-METHYL TRANSFERASE (NNMT)” (UNIVERSITEIT LEIDEN, priority 2021, published 2024).
“And” between values parts separate entries of the source, which are not always exact repeats. Equal entries are not always repeated. Where two headings read alike, the source gives them in different places. Blank lines part the entries; values can stand above or below the compound they belong to.

How the values were obtained:
[1] = test system: T24 human bladder cancer cell line; assay: MTT cell proliferation assay, T24; assay type: cell-based; conditions: for % of DMSO control at 100 μM, T24, 24 h: 24 h incubation; for % of DMSO control at 100 μM, T24, 48 h: 48 h incubation; for % of DMSO control at 100 μM, T24, 72 h: 72 h incubation
Experimental: (§1) UROTsa immortalized human urothelium cell line, HSC-2 human oral cancer cell line, T24 human bladder cancer cell line and A549 human lung cancer line were purchased from the American Type Culture Collection (ATCC, Rockville, MD, USA), and cultured in DMEM/F12 medium, supplemented with 10% fetal bovine serum and 50 μg/ml gentamicin, at 37° C. in a humidified 5% CO2 incubator. For each compound tested, powder was dissolved in DMSO at 100 mM concentration. This stock solution was then diluted in culture medium to final concentration values ranging between 1 μM and 100 μM. For each sample, DMSO was kept constant at 0.1% final concentration. The day before starting treatment, cells were seeded in 96-well plates, at a density of 2000 cells/well. Cells were allowed to attach overnight and then incubated with compounds at different final concentrations, or with DMSO only, for 24, 48 and 72 hours. All experiments were performed in triplicate.
(§2) Cell proliferation was determined using a colorimetric assay with 3-(4,5-dimethylthiazol-2-yl)-2,5-diphenyl tetrazolium bromide (MTT). The MTT assay measures the conversion of MTT to insoluble formazan by dehydrogenase enzymes of the intact mitochondria of living cells. Cell proliferation was evaluated by measuring the conversion of the tetrazolium salt MTT to formazan crystals upon treatment with compounds or DMSO only for 24, 48 and 72 hours. Briefly, cells were incubated for 2 hours at 37° C. with 100 μl fresh culture medium containing 5 μl of MTT reagent (5 mg/ml in PBS). The medium was removed and 200 μl isopropanol were added. The amount of formazan crystals formed correlated directly with the number of viable cells. The reaction product was quantified by measuring the absorbance at 540 nm using an ELISA plate reader. Experiments were repeated three times. Results were expressed as percentage of the control (control equals 100% and corresponds to the absorbance value of each sample at time zero) and presented as mean values±standard deviation of three independent experiments performed in triplicate.
(§3) Data were analysed using GraphPad Prism software for Windows (GraphPad Software, San Diego, CA). Significant differences between groups were determined using the one-way analysis of variance (ANOVA). A p value <0.05 was considered as statistically significant.

[2] = test system: A549 human lung cancer line; assay: MTT cell proliferation assay, A549; assay type: cell-based; conditions: for % of DMSO control at 100 μM, A549, 24 h: 24 h incubation; for % of DMSO control at 100 μM, A549, 48 h: 48 h incubation; for % of DMSO control at 100 μM, A549, 72 h: 72 h incubation
Experimental: as §1, §2, §3

[3] = test system: HSC-2 human oral cancer cell line; assay: MTT cell proliferation assay, HSC-2; assay type: cell-based; conditions: for % of DMSO control at 100 μM, HSC-2, 24 h: 24 h incubation; for % of DMSO control at 100 μM, HSC-2, 48 h: 48 h incubation; for % of DMSO control at 100 μM, HSC-2, 72 h: 72 h incubation
Experimental: as §1, §2, §3

NNMT = target: T1, NNMT (Homo sapiens, UniProt P40261); assay: NNMT assay (HILIC-MS/MS, formation of MNA); conditions: NA 200 μM, SAM 8.5 μM, maximum concentration tested 25 μM
T1 sequence (P40261 1-264): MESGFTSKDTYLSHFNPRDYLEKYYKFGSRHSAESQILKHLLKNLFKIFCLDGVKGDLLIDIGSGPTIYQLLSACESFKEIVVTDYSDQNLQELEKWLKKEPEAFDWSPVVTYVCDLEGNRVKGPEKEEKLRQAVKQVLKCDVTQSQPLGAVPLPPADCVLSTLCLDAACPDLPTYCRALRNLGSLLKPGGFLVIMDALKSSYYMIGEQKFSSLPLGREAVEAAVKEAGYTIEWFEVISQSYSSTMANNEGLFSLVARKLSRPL

[4] = read-out: IC50 values, Table 1, alkene linked aromatics
[5] = IC50 values (nM), Table 6, amino acid replacement
[6] = IC50 values (μM), Table 6, amino acid replacement

Compound: N#Cc1ccc(/C=C/CN(CC[C@H](N)C(=O)O)C[C@H]2O[C@@H](n3cnc4c(N)ncnc43)[C@H](O)[C@@H]2O)cc1 [GYZ-319]
% of DMSO control at 100 μM, T24, 24 h [1]: 100 % of DMSO control | % of DMSO control at 100 μM, T24, 48 h [1]: 79 % of DMSO control | % of DMSO control at 100 μM, T24, 72 h [1]: 86 % of DMSO control | % of DMSO control at 100 μM, A549, 24 h [2]: 100 % of DMSO control | % of DMSO control at 100 μM, A549, 48 h [2]: 74 % of DMSO control | % of DMSO control at 100 μM, A549, 72 h [2]: 66 % of DMSO control | % of DMSO control at 100 μM, HSC-2, 24 h [3]: 100 % of DMSO control | % of DMSO control at 100 μM, HSC-2, 48 h [3]: 53 % of DMSO control | % of DMSO control at 100 μM, HSC-2, 72 h [3]: 49 % of DMSO control

Compound: COC(=O)[C@@H](N)CCN(C/C=C/c1ccc(C#N)cc1)C[C@H]1O[C@@H](n2cnc3c(N)ncnc32)[C@H](O)[C@@H]1O [GYZ-494]
% of DMSO control at 100 μM, T24, 24 h [1]: 100 % of DMSO control | % of DMSO control at 100 μM, T24, 48 h [1]: 76 % of DMSO control | % of DMSO control at 100 μM, T24, 72 h [1]: 100 % of DMSO control | % of DMSO control at 100 μM, A549, 24 h [2]: 100 % of DMSO control | % of DMSO control at 100 μM, A549, 48 h [2]: 100 % of DMSO control | % of DMSO control at 100 μM, A549, 72 h [2]: 88 % of DMSO control | % of DMSO control at 100 μM, HSC-2, 24 h [3]: 100 % of DMSO control | % of DMSO control at 100 μM, HSC-2, 48 h [3]: 100 % of DMSO control | % of DMSO control at 100 μM, HSC-2, 72 h [3]: 87 % of DMSO control

Compound: CCOC(=O)[C@@H](N)CCN(C/C=C/c1ccc(C#N)cc1)C[C@H]1O[C@@H](n2cnc3c(N)ncnc32)[C@H](O)[C@@H]1O [GYZ-552]
% of DMSO control at 100 μM, T24, 24 h [1]: 100 % of DMSO control | % of DMSO control at 100 μM, T24, 48 h [1]: 100 % of DMSO control | % of DMSO control at 100 μM, T24, 72 h [1]: 100 % of DMSO control | % of DMSO control at 100 μM, A549, 24 h [2]: 100 % of DMSO control | % of DMSO control at 100 μM, A549, 48 h [2]: 100 % of DMSO control | % of DMSO control at 100 μM, A549, 72 h [2]: 100 % of DMSO control | % of DMSO control at 100 μM, HSC-2, 24 h [3]: 100 % of DMSO control | % of DMSO control at 100 μM, HSC-2, 48 h [3]: 100 % of DMSO control | % of DMSO control at 100 μM, HSC-2, 72 h [3]: 73 % of DMSO control

Compound: N#Cc1ccc(/C=C/CN(CC[C@H](N)C(=O)O)C[C@H]2O[C@@H](n3cnc4c(N)ncnc43)[C@H](O)[C@@H]2O)cc1F [GYZ-658]
IC50 (NNMT; [4]): < 5 nM

IC50 (NNMT; [5]): 4160 nM | IC50 (NNMT; [6]): 4160 nM
Compound: C=CC(=O)N1CC(CN(C/C=C/c2ccc(C#N)cc2)C[C@H]2O[C@@H](n3cnc4c(N)ncnc43)[C@H](O)[C@@H]2O)C1 [GYZ-665]

Compound: N#Cc1c(F)cc(/C=C/CN(CC[C@H](N)C(=O)O)C[C@H]2O[C@@H](n3cnc4c(N)ncnc43)[C@H](O)[C@@H]2O)cc1F [GYZ-670]
IC50 (NNMT; [4]): 2 nM and 1.99 nM

Compound: N#Cc1ccc(/C=C/CN(CC[C@H](N)C(=O)O)C[C@H]2O[C@@H](n3cnc4c(N)ncnc43)[C@H](O)[C@@H]2O)c(F)c1 [GYZ-674]
IC50 (NNMT; [4]): 5 nM and 5.33 nM

IC50 (NNMT; [5]): 7770 nM | IC50 (NNMT; [6]): 7770 nM
Compound: N#Cc1ccc(/C=C/CN(CCNC(=O)C(F)(F)F)C[C@H]2O[C@@H](n3cnc4c(N)ncnc43)[C@H](O)[C@@H]2O)cc1 [GYZ-693]

IC50 (NNMT; [5]): > 25000 nM | IC50 (NNMT; [6]): > 25000 nM
Compound: COC(=O)/C=C/C(=O)NCCN(C/C=C/c1ccc(C#N)cc1)C[C@H]1O[C@@H](n2cnc3c(N)ncnc32)[C@H](O)[C@@H]1O [GYZ-694]

IC50 (NNMT; [5]): 931 nM | IC50 (NNMT; [6]): 931 nM
Compound: N#CCC(=O)NCCN(C/C=C/c1ccc(C#N)cc1)C[C@H]1O[C@@H](n2cnc3c(N)ncnc32)[C@H](O)[C@@H]1O [GYZ-695]

IC50 (NNMT; [5]): > 25000 nM | IC50 (NNMT; [6]): > 25000 nM
Compound: N#Cc1ccc(/C=C/CN(CCNC(=O)C(F)(F)Cl)C[C@H]2O[C@@H](n3cnc4c(N)ncnc43)[C@H](O)[C@@H]2O)cc1 [GYZ-701]

IC50 (NNMT; [5]): 980 nM | IC50 (NNMT; [6]): 980 nM
Compound: N#Cc1ccc(/C=C/CN(CC(=O)CCl)C[C@H]2O[C@@H](n3cnc4c(N)ncnc43)[C@H](O)[C@@H]2O)cc1 [GYZ-702]

IC50 (NNMT; read-out: IC50 values, Table 6, amino acid replacement): 538 nM
Compound: C=CC(=O)CCCN(C/C=C/c1ccc(C#N)cc1)C[C@H]1O[C@@H](n2cnc3c(N)ncnc32)[C@H](O)[C@@H]1O [GYZ-704]

IC50 (NNMT; [5]): > 25000 nM | IC50 (NNMT; [6]): > 25000 nM
Compound: N#Cc1ccc(/C=C/CN(CCNC(=O)C(F)(F)Br)C[C@H]2O[C@@H](n3cnc4c(N)ncnc43)[C@H](O)[C@@H]2O)cc1 [GYZ-706]

IC50 (NNMT; [5]): > 25000 nM | IC50 (NNMT; [6]): > 25000 nM
Compound: CCCCCN(C/C=C/c1ccc(C#N)cc1)C[C@H]1O[C@@H](n2cnc3c(N)ncnc32)[C@H](O)[C@@H]1O [GYZ-718]
